Laboratory results from patent US4059692A, “Treating impaired consciousness with glutamyl-L-histidyl-L-prolinamide” (Takeda Chemical Industries, Ltd., priority 1975, dated 1977).
Structures can show the parent of a compound that is named as a salt.

Test system: human patient with impaired consciousness due to functional or organic damage of the brain
Experiment: Clinical administration of TRH tartrate to human patients with impaired consciousness (case reports 1-8)
Format: in vivo
Conditions: for motor/behavioural recovery: 200 μg free TRH i.m. daily
Source text: The method of the present invention is applicable to human patients with impaired consciousness due to functional or organic damage to the brain, such as cranial trauma, brain surgery, cerebrovascular disorder, brain tumors and the like.
According to the present invention, TRH may be employed as the free base or in the form of a physiologically acceptable salt such as an acid addition salt e.g. a mineral acid salt (hydrochloride, sulphate, etc.) or an organic acid salt (acetate, tartrate, etc.). TRH tartrate is especially convenient for the administration. TRH or its salts are generally administered by the parenteral routes such as intravenous or intramuscular routes to the patients. The therapeutic dosage depends upon the route and upon the severity of impaired consciousness in each patient, and it may generally be chosen from within the range of from about 100 to about 5,000 μg. in terms of free TRH per adult human patient per day, more particularly from about 500 to about 5,000 μg. in terms of free TRH per adult human patient per day, when parenterally e.g. intravenously or intramuscularly administered. In case of those patients having swallowing capacity TRH or its salts may be orally administered. In this case, the dosage may be of course chosen from within the abovementioned range, but it may be increased over the said range, for example, up to about 150 mg. in terms of free TRH per adult human patient per day.
Child: Postoperative state of haematoma of right frontal lobe caused by cranial trauma.
Before administration, the patient was able to respond to only painful stimuli with a verbal expression of pain, otherwise being unconcious with a slight palpebral opening. Such conscious state lasted without modification for a further 10 days. The daily intramuscular injection of 292 μg. of TRH tartrate (dissolved in 0.8 ml of a sterile physiological saline; 200 μg. in terms of free TRH) successively for 10 days.
person: Postoperative state of metastatic brain tumor on right frontal and pariental lobes.
Craniotomy performed for the reduction of the intracranial pressure was followed by the gradual deterioration of consciousness. Therefore, TRH tartrate in the daily dose of 730 μg. (dissolved in 20 ml of 20% glucose; 500 μg. in terms of free TRH) was administered by intravenous drip infusion of 13 days.
Child: Brain contusion due to cranial trauma.
The child suffered from bodily contusion and loss of consciousness by collision on their bicycle with a train. At the time of hospitalization, the bilateral facilitation of the knee-jerk reflex was associated with the positive Babinski's reflex bilaterally. The daily administration of 730 μg.
Person: Post-operative state of glioblastoma.
The surgical resection of glioblastoma by cranitomy was gradually followed by a worsening of the general condition associated with impaired consciousness for 3 months.
person: Traumatic protracted coma.
The patient had been thrown from a motor bike and disturbance of consciousness had become apparent immediately after the accident. There was movement of the extremities and grimacing of the face in response to pain stimulus. The disturbance of consciousness continued thereafter and the disturbance had become fixed for 2 years prior to medication with TRH. TRH tartrate in the daily dose of 7,300 μg. (dissolved in 200 ml of electrolyte solution; 5,000 μg. in terms of free TRH) was administered by intravenous drip infusion. […] They also began to answer friends vocally with "Ah", "Ah". […] The medication was terminated at the 10th day.
person: Aneurysm of left cerebral artery.
After an attack of subarachnoid hemorrhage, it was noted that they had lost accessibility with people around them and volition, and that they had been in an abstract state. This condition had lasted for 1 month. TRH tartrate in the daily dose of 3,650 μg. […]

[1] = Case 3, 500 μg free TRH i.v. drip daily for 10 days

## NC(=O)[C@@H]1CCCN1C(=O)[C@H](Cc1cnc[nH]1)NC(=O)[C@@H]1CCC(=O)N1 [TRH tartrate]
Case 1: postoperative haematoma of right frontal lobe, 292 μg TRH tartrate (200 μg free TRH) intramuscular daily for 10 days, 5th day of treatment
  state of consciousness (response to interview): prompt verbal reply with a smile to the interview by the doctor
Case 1, 7th day
  motor/behavioural recovery: able to ride and sit by themself on a wheel-chair
Case 1, 8th day (the next day)
  motor/behavioural recovery: able to go to a stool with support
Case 1, one day after termination of the 10-day daily administration
  motor/behavioural recovery and conversation: able to sit by themself on the bed and to have a conversation with others
Case 2: postoperative metastatic brain tumor, 730 μg TRH tartrate (500 μg free TRH) intravenous drip infusion daily, 13 days, 2nd day
  conscious state: significant improvement of the conscious state
Case 2, 500 μg free TRH i.v. drip daily, 2nd day
  orientation ability: improvement of orientation ability
Case 2, after termination of the TRH treatment
  persistence of improved conscious state: persist for about one month after the termination of the TRH treatment
Case 3: brain contusion, 730 μg TRH tartrate (500 μg free TRH) i.v. drip daily for 10 days, 2nd day
  Babinski's reflex: sluggish appearance of Babinski's reflex
[1]
  impaired consciousness: began to be improved from the 4th day
  impaired orientation: markedly improved
Case 3, 500 μg free TRH i.v. drip daily, 3rd day
  Babinski's reflex: disappearance on the 3rd day
Case 3, after treatment
  final outcome: recovered without any neurological abnormality
Case 3, one day after termination of the daily administration
  motor recovery: able to walk
Case 4: post-operative glioblastoma, 1,460 μg TRH tartrate (1,000 μg free TRH) i.v. drip daily for 10 days
  palpebral opening and eyeball movement: prolonged the time-length of the palpebral opening from the 4th day
Case 4, 1,000 μg free TRH i.v. drip daily for 10 days
  consciousness: remarkable improvement of the consciousness
Case 5: traumatic protracted coma fixed for 2 years, 7,300 μg TRH tartrate (5,000 μg free TRH) i.v. drip daily, two days after start
  response to vocal questioning: began to respond with a sound to vocal questioning and turn the eyes towards the questioner
Case 5, 5,000 μg free TRH i.v. drip daily, 10 days treatment period
  side effects: No side effects were observed
Case 5, 5,000 μg free TRH i.v. drip daily, from about the fifth day
  level of consciousness: definite improvement in the level of consciousness
Case 6: aneurysm of left cerebral artery, subarachnoid hemorrhage, 3,650 μg TRH tartrate (2,500 μg free TRH) i.v. drip daily for 10 days, third day
  abstract state: abstract state disappeared
Case 6, 2,500 μg free TRH i.v. drip daily for 10 days
  side effects: No noteworthy side effects were observed
Case 6, 2,500 μg free TRH i.v. drip daily, seventh day
  state of consciousness: restored close to normal
Case 7: sequelae of head trauma, 8.76 mg TRH tartrate (6 mg free TRH) orally daily for 2 weeks, from the third day
  behavior and spontaneous activity: normalization of behavior and spontaneous activity
Case 7, 6 mg free TRH orally daily for 2 weeks
  side effects: No side effects were noted
Case 7, 6 mg free TRH orally daily, after 1 week
  conversation with people: began to actively converse with people around them
Case 7, after medication was terminated at 2 weeks
  persistence of improvement in level of consciousness: improvement in the level of consciousness was retained
Case 8: sequelae of head trauma, 17.52 mg TRH tartrate (12 mg free TRH) orally daily, after 2 weeks
  spontaneous activity / volition: began to actively watch television or play the pinball machine
Case 8, 12 mg free TRH orally daily, after 2 weeks
  agnosia and disorientation: little change in the agnosia and disorientation
Case 8, 12 mg free TRH orally daily, during and after termination of medication
  side effects: No side effects have been observed
Case 8, medication terminated after 2 weeks, after 3 months
  condition after termination of medication: no marked change in the condition of the patient

## NC(=O)[C@@H]1CCCN1C(=O)[C@H](Cc1c[nH]cn1)NC(=O)[C@@H]1CCC(=O)N1 [TRH, L-pyroglutamyl-L-histidyl-L-prolinamide]
Case 5, 5,000 μg (free TRH) per day, case had not responded to conventional treatment
  impaired consciousness (overall): significant improvement of impaired consciousness
